Test results taken from US10287530B2, “Surfactants based on monounsaturated fatty alcohol derivatives” (priority 2013, dated 2019).
Where two headings read alike, the source gives them in different places.

What was measured:
[1] = Surfactant phase behavior study by cross-polarized microscopy; type: physicochemical; settings: in deionized water, room temperature (20-22° C.); boundaries are estimates (±5%)
Method: Phase behavior is observed using an Olympus BH-2 cross-polarized microscope at 100-400× and room temperature (20° C. to 22° C.). The monounsaturated C11 alcohol derivatives (sulfates, ethoxylate sulfates, and alcohol ethoxylates) are compared with their saturated analogs. Samples are prepared by diluting the most concentrated product gradually with deionized water. When the surfactant concentration approaches a phase transition, the concentration is varied at 2-4% intervals to estimate the phase boundary. The actives level reported in Table 6 for each phase boundary is within ±5% of the true boundary. Samples are loaded between a microscope slide and cover glass and are allowed to equilibrate before observation. Microscopic texture is analyzed and used to determine the phase. For some samples, an AR 2000 rheometer (TA Instruments) is used to measure viscosity at 25° C. to further verify phase behavior.

[2] = system: zein, yellow corn (maize) protein
Method: The zein test is based on solubilization by surfactants of a yellow corn (maize) protein that is normally insoluble in water unless it is denatured. The test gravimetrically determines the amount of zein dissolved by a surfactant solution. The solubility of zein in surfactant solutions correlates well with skin irritation or roughness caused by the surfactant. […] A higher zein number corresponds to a greater degree of irritation.
A 1% actives solution of each test surfactant (120 mL) is prepared. The pH of each solution is adjusted to about 7.0 with dilute aq. sulfuric acid or dilute aq. sodium hydroxide. The surfactant solution is warmed to 45° C. Zein powder (1.50 g) is added to each of three jars. Surfactant (25.0 g of 1% actives solution) is added to each jar, and to one empty jar to be used as a blank. The solutions are mixed using magnetic stirring on a temperature-controlled hotplate at 45° C. for 60 min. Each mixture is then centrifuged (2500 rpm, 15 min.), and undissolved zein powder is isolated by vacuum filtration. The residue is washed with deionized water and dried (55° C., 24 h) to constant weight. The amount of undissolved zein protein is found gravimetrically, and the results from three runs are averaged to give the % of solubilized zein and zein number.

[3] = type: physicochemical; settings: for Emulsion stability, mL separation, 1 h / Emulsion stability, mL separation, 24 h: 342 ppm water; for Rating: overall, versus control
Method: Surfactant candidates for water soluble herbicide applications are examined as a replacement for the anionic, nonionic, or anionic/nonionic blend portion and compared to a known industry adjuvant standard for use in paraquat, a water soluble herbicide concentrate formulation. A standard dilution test is conducted whereby the concentrates are diluted in water to determine if solubility is complete.
A known industry paraquat adjuvant (2.8 g) is added and vigorously mixed for 30 s. Deionized water (8.07 g) is added, and mixing resumes for 30 s. […] The cylinder is stoppered and inverted ten times. Solubility is recorded as complete or incomplete. Cylinders are allowed to stand and the amount (in mL) and type of separation are recorded after 30 min., 1 h, 2 h, and 24 h. Results of the solubility testing appear in Table 4 below.
An eight to ten mole alkyl phenol ethoxylate surfactant (0.7 g) is added and vigorously mixed for 30 s. Test sample (0.7 g) is added and mixing resumes for 30 s. Deionized water (4.03 g) is added, and mixing resumes for 30 s.
Test sample (0.7 g) is added and vigorously mixed for 30 s. Sodium linear alkylbenzene sulfonate (“NaLAS,” 0.7 g) is added and mixing resumes for 30 s. Deionized water (4.03 g) is added, and mixing resumes for 30 s.
Test sample (1.4 g) is added and vigorously mixed for 30 s. Deionized water (4.03 g) is added, and mixing resumes for 30 s.

[4] = Interfacial tension (IFT) against light mineral oil, synergy study with cationic surfactant; type: physicochemical; settings: for IFT at 0.1% actives/mineral oil (blend): 1:1 molar blend of the anionic with Ammonyx Cetac 30, 0.1% actives, light mineral oil; for Calculated IFT (no synergy): expected IFT of the 1:1 molar blend with Ammonyx Cetac 30 by ideal mixing; for Synergy?: measured versus expected IFT of the 1:1 molar blend with Ammonyx Cetac 30; for IFT at 0.1% actives (single component): 0.1 wt. % active against light mineral oil, ambient temperature
Method: The surfactant blends tested are prepared at a 1:1 molar ratio without any pH adjustment. Dilutions are made using deionized water to the desired actives level. Actives amounts are wt. % unless indicated otherwise. Appearances are reported at ambient temperature for samples prepared within the last 24 h.
Interfacial tension (IFT) of all the individual components and their blends is measured at 0.1 wt. % active against light mineral oil at ambient temperature using a Kruss DSA-20 pendent drop tensiometer. The drop is blown out at 600 μL/min., and a video is recorded for 100 s. The video frames taken during the last 15 s are analyzed and used for the IFT calculation.
For blends having an IFT less than 0.5 mN/m, the IFT is determined using a spinning drop tensiometer (University of Texas 500) at 25° C. Oil density=0.877 g/cm^3 and surfactant density=0.997 g/cm^3 are used for the IFT calculation.
The expected IFT for a blend is calculated based on ideal mixing (non-synergistic) using the active component in each blend. The equation used is given as: Expected IFT=X*IFTa+(1−X)*IFTb where X is the actives % of component A, IFTa is the IFT of component A, and IFTb is the IFT of component B. If the measured IFT for a blend is less than the expected IFT, then the blend is synergistic. If the measured IFT for a blend is higher than the expected IFT, the system is antagonistic.

[5] = Adjuvant (anionic/nonionic) test sample

Substance	Estimated Phase Region as a Function of % Actives Level: Hexagonal [1]	Estimated Phase Region as a Function of % Actives Level: Isotropic Clear [1]	Estimated Phase Region as a Function of % Actives Level: Lamellar [1]	Estimated Phase Region as a Function of % Actives Level: Solid/gum/paste [1]	% solubilized zein [2]	zein number [2]	Emulsion stability, mL separation, 1 h [3, 5]	Emulsion stability, mL separation, 24 h [3, 5]	Emulsion stability, mL separation, 1 h ([3]; Anionic test sample)	Emulsion stability, mL separation, 24 h ([3]; Anionic test sample)	Emulsion stability, mL separation, 1 h ([3]; Nonionic test sample)	Emulsion stability, mL separation, 24 h ([3]; Nonionic test sample)	Rating [3]	IFT at 0.1% actives/mineral oil (blend) [4]	Calculated IFT (no synergy) [4]	Synergy? [4]	IFT at 0.1% actives (single component) [4]	Estimated Phase Region as a Function of % Actives Level: Solid/isotropic [1]	% solubilized zein ([2]; 1% actives solution, pH about 7.0, 45° C., 60 min, average of three runs)	zein number ([2]; relative to 1% actives Stepanol WA-Extra PCK (SLS) control = 100, higher = more irritating, average of three runs)
1-Undecanol, 1EO Ether Sulfate, Sodium Salt [Sat. C11 alcohol 1EO Na sulfate]	36-58 % actives	0-36 % actives	58-72 % actives	72-100 % actives	33.7%	68.0	0 mL	0.2 mL	0 mL	0 mL	0.2 mL	0.5 mL	good	0.23 mN/m	6.44 mN/m	very high	12.52 mN/m	–	–	–
Undecylenic Alcohol, 1EO Ether Sulfate, Sodium Salt [Unsat. C11 alcohol 1EO Na sulfate]	–	0-64 % actives	–	74-100 % actives	–	–	0 mL	0.5 mL	0 mL	0 mL	0.2 mL	0.25 mL	good	0.13 mN/m	3.27 mN/m	very high	6.18 mN/m	64-74 % actives	8.3%	16.7
